Assay results taken from patent publication US10752900B2, “Oligonucleotides for modulating gene expression and uses thereof” (BIOGENERA S.P.A., priority 2012, dated 2020).

Legend:
Format in all cases: cell-based, human
[1] = test system: MYCN gene; experiment: QT-PCR, MYCN mRNA in RH30 cells
Description: For the purpose of assessing the ability of the oligonucleotides of the present invention to modulate the expression of the target genes, their ability to reduce the quantity of messenger RNA was analyzed using the Real-Time PCR technique. For this purpose, use was made of 24-well plates, which were seeded with 5.0×10^4 cells with 0.3 ml of OPTI-MEM (GIBCO BRL) medium, 4% FBS and 2 mM L-glutammine (experiments in triplicate) per well. The cells were incubated for 24 hours at 37° C., in an atmosphere containing 5% CO2 to permit adherence to the base of the wells. Each oligonucleotide analyzed, except for the PNA oligonucleotides, was incubated beforehand with 2 μl of Lipofectamine 2000 (Invitrogen), with 0.3 mL of serum-free OPTI-MEM (GIBCO BRL) medium. For each well, the oligonucleotides were analyzed at the following final concentrations: • the antisense oligonucleotides siRNA and siRNA gapmer (i.e. the oligonucleotides containing one or more monomers of chemically modified nucleic acids at the 3' or 5' end, while in the central portion they have monomers of nucleic acids that have not been modified or have been modified at the level of the phosphodiester bond as a phosphorothioate bond) were used at 200 nM; • the antisense oligonucleotides containing phosphorothioate DNA monomers, the RNA antigene oligonucleotides (agRNA) and the oligonucleotides containing DNA monomers and LNA monomers were used at 10 μM; • the morpholino oligonucleotides were used at a concentration of 1 μM, and • the PNA oligonucleotides were administered at a concentration of 1 μM. The cells were treated with the oligonucleotides, adding FBS up to 4% 6 hours after administration of the same. After 24 hours the total RNA was extracted from each well and purified using the RNeasy Mini Kit (QIAGEN). Assays were performed on 8 cell lines obtained from 5 different human tumours which are correlated with MYCN expression, i.e.: • as a neuroblastoma model use was made of the cell lines Kelly, IMR-32 (where the MYCN gene is amplified and superexpressed) and SKNBE2c and LAN1 (where the MYCN gene is amplified and superexpressed and the p53 gene is mutated); • as a rabdomiosarcoma model use was made of the cell line RH30, where the MYCN gene is amplified and superexpressed; • as a Wilms' tumour model use was made of the cell line WiT49, where the MYCN gene is amplified and superexpressed; • as a retinoblastoma model use was made of the cell line Y79, where the MYCN gene is amplified and superexpressed; and • as a model of small cell lung cancer use was made of the cell line H69 where the MYCN gene is amplified and superexpressed. As a control, use was made of the same cell lines as listed above treated with sterile water instead of oligonucleotides. Each RNA sample was quantified (in duplicate) using a NanoDrop ND-1000 spectrophotometer (NanoDrop Technologies). The first strand of cDNA was produced using the cDNA Synthesis Kit for RT-PCR (Roche). For the cDNA synthesis reaction a total of 1 μg of RNA was used. For the real-time PCR, 10 ng of cDNA in a final volume of 20 μl was used with SYBR Green Master Mix 2× (Applied Biosystems) (3 identical experiments were conducted in triplicate). Two housekeeping genes were used as positive controls: GAPDH and beta-actin (ACTB). The conditions of the QT-PCR reaction were: 10 min at 95° C., 20 sec at 95° C., and 30 sec at 60° C., for 50 cycles. The PNAs having SEQ ID NO: 1-12 were also tested on different cell lines which overexpress MYCN (Kelly, SKNBE2c, RH30, […] 1 and H69). The results are shown in Table 6 and confirm the selectivity and specificity of the inhibition effect of the PNAs on the product of protein translation of the MYCN gene. Chimeric oligonucleotides comprising DNA monomers and LNA monomers and having the MYCN gene as their target were tested in vitro on alveolar rabdomyosarcoma cells (RH30). […]

[2] = test system: rabdomyosarcoma cells (RH30); experiment: Cellular proliferation assay (ATP-Lite), RH30 cells
Description: For the purpose of assessing the gene modulation ability of the oligonucleotides of the present invention, the effect of their administration on cell viability was determined. For this purpose 5×10^3 cells per well were seeded into 96-well cell culture plates (experiments conducted in triplicate) with 100 μl of OPTI-MEM (GIBCO BRL) medium containing 4% FBS and 2 mM of L-glutammine. The PNA oligonucleotides were administered at different concentrations (1 μM-2.5 μM-5 μM-10 μM) in order to observe a dose-effect relationship. As regards all the other oligonucleotides, the concentrations at which they administered are listed in the paragraph: The viability of the treated cells was determined at 48, 72, 96 and 168 hours after treatment. Cell viability was assessed by means of an ATP-Lite assay (Luminescence ATP Detection Assay System, PerkinElmer) and is reported as the ratio between the average signal of the treated wells compared to the average value of the wells of untreated control cells. The cells were processed following the instructions provided with the kit. The assays were performed on the same cell lines used to determine the levels of the MYCN gene messenger and listed in the paragraph: Treatments with Oligonucleotides-QT-PCR. The PNAs having SEQ ID NO: 1-12 were also tested on different cell lines which overexpress MYCN (Kelly, SKNBE2c, RH30, […] 1 and H69). The results are shown in Table 6 and confirm the selectivity and specificity of the inhibition effect of the PNAs on the product of protein translation of the MYCN gene. Chimeric oligonucleotides comprising DNA monomers and LNA monomers and having the MYCN gene as their target were tested in vitro on alveolar rabdomyosarcoma cells (RH30). […] The antisense oligonucleotides designed and synthesized by the Applicant according to the parameters described in the present invention were analyzed in vitro on rabdomyosarcoma cells (RH30).

[3] = test system: MYCN gene; experiment: QT-PCR, MYCN mRNA in Kelly cells; parameters: mRNA Inhibition (%)(Kelly): concentration or dose not given beside the values; conditions: for mRNA Inhibition (%)(Kelly): Table 7, SEQ ID NO: 5 and guanine-group mutants
Description: For the purpose of assessing the ability of the oligonucleotides of the present invention to modulate the expression of the target genes, their ability to reduce the quantity of messenger RNA was analyzed using the Real-Time PCR technique.
For this purpose, use was made of 24-well plates, which were seeded with 5.0×10^4 cells with 0.3 ml of OPTI-MEM (GIBCO BRL) medium, 4% FBS and 2 mM L-glutammine (experiments in triplicate) per well.
The cells were incubated for 24 hours at 37° C., in an atmosphere containing 5% CO2 to permit adherence to the base of the wells.
Each oligonucleotide analyzed, except for the PNA oligonucleotides, was incubated beforehand with 2 μl of Lipofectamine 2000 (Invitrogen), with 0.3 mL of serum-free OPTI-MEM (GIBCO BRL) medium.
For each well, the oligonucleotides were analyzed at the following final concentrations: • the antisense oligonucleotides siRNA and siRNA gapmer (i.e. the oligonucleotides containing one or more monomers of chemically modified nucleic acids at the 3′ or 5′ end, while in the central portion they have monomers of nucleic acids that have not been modified or have been modified at the level of the phosphodiester bond as a phosphorothioate bond) were used at 200 nM; • the antisense oligonucleotides containing phosphorothioate DNA monomers, the RNA antigene oligonucleotides (agRNA) and the oligonucleotides containing DNA monomers and LNA monomers were used at 10 μM; • the morpholino oligonucleotides were used at a concentration of 1 μM, and • the PNA oligonucleotides were administered at a concentration of 1 μM.
The cells were treated with the oligonucleotides, adding FBS up to 4% 6 hours after administration of the same. After 24 hours the total RNA was extracted from each well and purified using the RNeasy Mini Kit (QIAGEN).
Assays were performed on 8 cell lines obtained from 5 different human tumours which are correlated with MYCN expression, i.e.: • as a neuroblastoma model use was made of the cell lines Kelly, IMR-32 (where the MYCN gene is amplified and superexpressed) and SKNBE2c and LAN1 (where the MYCN gene is amplified and superexpressed and the p53 gene is mutated); • as a rabdomiosarcoma model use was made of the cell line RH30, where the MYCN gene is amplified and superexpressed; • as a Wilms' tumour model use was made of the cell line WiT49, where the MYCN gene is amplified and superexpressed; • as a retinoblastoma model use was made of the cell line Y79, where the MYCN gene is amplified and superexpressed; and • as a model of small cell lung cancer use was made of the cell line H69 where the MYCN gene is amplified and superexpressed.
As a control, use was made of the same cell lines as listed above treated with sterile water instead of oligonucleotides. Each RNA sample was quantified (in duplicate) using a NanoDrop ND-1000 spectrophotometer (NanoDrop Technologies). The first strand of cDNA was produced using the cDNA Synthesis Kit for RT-PCR (Roche). For the cDNA synthesis reaction a total of 1 μg of RNA was used. For the real-time PCR, 10 ng of cDNA in a final volume of 20 μl was used with SYBR Green Master Mix 2× (Applied Biosystems) (3 identical experiments were conducted in triplicate). Two housekeeping genes were used as positive controls: GAPDH and beta-actin (ACTB).
The conditions of the QT-PCR reaction were: 10 min at 95° C., 20 sec at 95° C., and 30 sec at 60° C., for 50 cycles.
(§1) As far as the PNA oligonucleotides are concerned, the results regarding their ability to inhibit the transcription of the MYCN gene and proliferation of Kelly cells are shown in Table 1.
The oligonucleotides were tested in vitro (at a concentration of 2.5 μM) to determine their ability to inhibit the transcription of the gene they are directed against by measuring the levels of the gene messenger in cellular models in which the gene of interest is overexpressed. The methods used are the ones described in example 1. […]

[4] = test system: Kelly cells; experiment: Cellular proliferation assay (ATP-Lite), Kelly cells; conditions: Table 7, SEQ ID NO: 5 and guanine-group mutants
Description: For the purpose of assessing the gene modulation ability of the oligonucleotides of the present invention, the effect of their administration on cell viability was determined.
For this purpose 5×10^3 cells per well were seeded into 96-well cell culture plates (experiments conducted in triplicate) with 100 μl of OPTI-MEM (GIBCO BRL) medium containing 4% FBS and 2 mM of L-glutammine.
The PNA oligonucleotides were administered at different concentrations (1 μM-2.5 μM-5 μM-10 μM) in order to observe a dose-effect relationship.
As regards all the other oligonucleotides, the concentrations at which they administered are listed in the paragraph:
The viability of the treated cells was determined at 48, 72, 96 and 168 hours after treatment.
Cell viability was assessed by means of an ATP-Lite assay (Luminescence ATP Detection Assay System, PerkinElmer) and is reported as the ratio between the average signal of the treated wells compared to the average value of the wells of untreated control cells. The cells were processed following the instructions provided with the kit.
The assays were performed on the same cell lines used to determine the levels of the MYCN gene messenger and listed in the paragraph: Treatments with Oligonucleotides—QT-PCR.
as §1
The ability of the tested oligonucleotides to inhibit the messenger of the gene of interest was measured and the proliferative capacity of the cells following administration of the oligonucleotides was also assessed.

[5] = Table 8, DNA-LNA oligonucleotides used at 10 μM with Lipofectamine 2000
[6] = Table 8, DNA-LNA oligonucleotides used at 10 μM

With “SEQ ID NO: 24: single-stranded chimeric DNA-LNA oligonucleotide ATGCCGGGCATGATCT against MYCN (DNA at CT, LNA at AG, backbone and methylation of C not given here)” the “mRNA inhibition (%)” value [1, 5] was 23% and the “Cell Prolif. (%)” value [2, 6] was 75%.
With “SEQ ID NO: 25: single-stranded chimeric DNA-LNA oligonucleotide ATGCCGGGCATGATCT against MYCN (DNA at AG, LNA at CT, backbone and methylation of C not given here)” the “mRNA inhibition (%)” value [1, 5] was 24% and the “Cell Prolif. (%)” value [2, 6] was 78%.
For “SEQ ID NO: 26: double-stranded siRNA against MYCN, sense UGAAGAUGAUGAAGAGGAA, antisense SEQ ID NO: 57 (antisense UUCCUCUUCAUCAUCUUCA; listed as RNA, chemistry not given here)”, the “mRNA inhibition (%)” value ([1]; Table 9, siRNA and siRNA gapmer used at 200 nM with Lipofectamine 2000) was 82% and the “Cell Prolif. (%)” value ([2]; Table 9, siRNA and siRNA gapmer used at 200 nM) was 28%.
With “SEQ ID NO: 43: PNA GCTGAGTCGATGCGTG, SEQ ID NO: 5 with all groups of consecutive guanines mutated (all peptide nucleic acid (PNA); antigene PNA, 3' carrier peptide conjugation not given here per molecule)” the “mRNA Inhibition (%)(Kelly)” value [3] was 0%, the “inhibitory activity” value ([3]; all groups of consecutive guanines of SEQ ID NO: 5 mutated) was “inhibitory activity of the PNAs to be lost” and the “(Kelly) Cell Prolif. %” value [4] was 100%.
In the case of “SEQ ID NO: 44: PNA GCTGAGTGGATGCGTG, modified SEQ ID NO: 5 with groups of consecutive guanines mutated (all peptide nucleic acid (PNA); antigene PNA, 3' carrier peptide conjugation not given here per molecule)”, the “mRNA Inhibition (%)(Kelly)” value [3] is reported as 25% and the “(Kelly) Cell Prolif. %” value [4] is reported as 89%.
“SEQ ID NO: 45: PNA GCTGGGTCGATGCGGG, modified SEQ ID NO: 5 with a group of consecutive guanines mutated (all peptide nucleic acid (PNA); antigene PNA, 3' carrier peptide conjugation not given here per molecule)” was tested, and the “mRNA Inhibition (%)(Kelly)” value [3] was 47% and the “(Kelly) Cell Prolif. %” value [4] was 69%.
For “SEQ ID NO: 46: PNA GTTGGGTGGATGTGGG, modified SEQ ID NO: 5 (all peptide nucleic acid (PNA); antigene PNA, 3' carrier peptide conjugation not given here per molecule)”, the “mRNA Inhibition (%)(Kelly)” value [3] was 58% and the “(Kelly) Cell Prolif. %” value [4] was 60%.
